Measured values published in patent US7989438B2, “Therapeutic compounds” (Istituto di Ricerche di Biologia Molecolare P. Angeletti SpA, priority 2007, dated 2011).
Like-named read-outs stand apart in the source and are kept apart here.

System: HCV subgenomic replication
Assay: Cell based HCV replication assay (subgenomic replicon in Huh-7 cells, NS3 Cell-ELISA)
Settings: activity ranges, read-out: IC50* (nM), Inhibition of HCV subgenomic replication
Procedure, shortened: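 Huh-7 cells stably carrying the I377neo/NS3-3′/wt subgenomic replicon, seeded at 10^4 cells/well in DMEM/10% FCS and exposed to inhibitor for 96 h. NS3 expression was measured by Cell-ELISA (mAb 10E5/24, alkaline phosphatase, absorbance 405/620 nm), in duplicate. IC50 was fitted to the Hill equation, with background from parental Huh-7 cells.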

[1] = Hepatitis C virus, Huh-7, Table 3, various macrocycles

| Structure (SMILES) | IC50 (Table 2, various macrocycles) | IC50 [1] |
| --- | --- | --- |
| CCN1CCNC2COc3cc(F)ccc3-c3c(C4CCCCC4)c4ccc(cc4n3C2)C(=O)NS(=O)(=O)N(C)CC1 [Example 204, (7R)-14-cyclohexyl-21-ethyl-3-fluoro-18-methyl-7,8-dihydro-6H-7,11-(epiminoethanoiminoethanoiminothioiminomethano)-indolo[1,2-e][1,5]benzoxazocin-15-one 17,17-dioxide] | 25 to 150 nM | – |
| CCN1CCN(C)C2COc3ccc(F)cc3-c3c(C4CCCCC4)c4ccc(cc4n3C2)C(=O)NS(=O)(=O)N(C)CC1 [Example 205, (7R)-14-cyclohexyl-21-ethyl-2-fluoro-18,24-dimethyl-7,8-dihydro-6H-7,11-(epiminoethanoiminoethanoiminothioiminomethano)-indolo[1,2-e][1,5]benzoxazocin-15-one 17,17-dioxide] | < 25 nM | – |
| CCN1CCN(Cc2cccnc2)C2COc3ccc(F)cc3-c3c(C4CCCCC4)c4ccc(cc4n3C2)C(=O)NS(=O)(=O)N(C)CC1 [Example 206, (7R)-14-cyclohexyl-21-ethyl-2-fluoro-18-methyl-24-(pyridin-3-ylmethyl)-7,8-dihydro-6H-7,11-(epiminoethanoiminoethanoiminothioiminomethano)-indolo[1,2-e][1,5]benzoxazocin-15-one 17,17-dioxide] | < 25 nM | – |
| CC(C)N1CCN(C)[C@H]2COc3cc(F)ccc3-c3c(C4CCCCC4)c4ccc(cc4n3C2)C(=O)NS(=O)(=O)N(C)CC1 [Example 207, (7R)-14-cyclohexyl-3-fluoro-21-isopropyl-18,24-dimethyl-7,8-dihydro-6H-7,11-(epiminoethanoiminoethanoiminothioiminomethano)-indolo[1,2-e][1,5]benzoxazocin-15-one 17,17-dioxide] | < 25 nM | – |
| CCN1CCN(CCNC)C2COc3cc(F)ccc3-c3c(C4CCCCC4)c4ccc(cc4n3C2)C(=O)NS(=O)(=O)N(C)CC1 [Example 208, (7R)-14-cyclohexyl-21-ethyl-3-fluoro-18-methyl-24-[2-(methylamino)ethyl]-7,8-dihydro-6H-7,11-(epiminoethanoiminoethanoiminothioiminomethano)-indolo[1,2-e][1,5]benzoxazocin-15-one 17,17-dioxide] | 25 to 150 nM | – |
| CC(C)N1CCN(C)C2COc3ccc(F)cc3-c3c(C4CCCCC4)c4ccc(cc4n3C2)C(=O)NS(=O)(=O)N(C)CC1 [Example 209, (7R)-14-cyclohexyl-2-fluoro-21-isopropyl-18,24-dimethyl-7,8-dihydro-6H-7,11-(epiminoethanoiminoethanoiminothioiminomethano)-indolo[1,2-e][1,5]benzoxazocin-15-one 17,17-dioxide] | < 25 nM | – |
| CCN1CCN(C)C2COc3cc(OC)ccc3-c3c(C4CCCCC4)c4ccc(cc4n3C2)C(=O)NS(=O)(=O)N(C)CC1 [Example 210, (7R)-14-cyclohexyl-21-ethyl-3-methoxy-18,24-dimethyl-7,8-dihydro-6H-7,11-(epiminoethanoiminoethanoiminothioiminomethano)-indolo[1,2-e][1,5]benzoxazocin-15-one 17,17-dioxide] | < 25 nM | – |
| CCN1CCN(C)[C@H]2COc3cc(OCc4ccccn4)ccc3-c3c(C4CCCCC4)c4ccc(cc4n3C2)C(=O)NS(=O)(=O)N(C)CC1 [Example 211, (7R)-14-cyclohexyl-21-ethyl-18,24-dimethyl-3-(pyridin-2-ylmethoxy)-7,8-dihydro-6H-7,11-(epiminoethanoiminoethanoiminothioiminomethano)-indolo[1,2-e][1,5]benzoxazocin-15-one 17,17-dioxide] | < 25 nM | – |
| CCCc1cccc2c1OCC1Cn3c-2c(C2CCCCC2)c2ccc(cc23)C(=O)NS(=O)(=O)N(C)CCN(C)CCN1C [Example 212, (7R)-14-cyclohexyl-18,21,24-trimethyl-4-propyl-7,8-dihydro-6H-7,11-(epiminoethanoiminoethanoiminothioiminomethano)-indolo[1,2-e][1,5]benzoxazocin-15-one 17,17-dioxide] | 25 to 150 nM | – |
| CCCc1cccc2c1OCC1Cn3c-2c(C2CCCCC2)c2ccc(cc23)C(=O)NS(=O)(=O)N(C)CCN(C(C)C)CCN1C [Example 213, (7R)-14-cyclohexyl-21-isopropyl-18,24-dimethyl-4-propyl-7,8-dihydro-6H-7,11-(epiminoethanoiminoethanoiminothioiminomethano)-indolo[1,2-e][1,5]benzoxazocin-15-one 17,17-dioxide] | 25 to 150 nM | – |
| CCN1CCN(CCO)[C@H]2COc3cc(C)ccc3-c3c(C4CCCCC4)c4ccc(cc4n3C2)C(=O)NS(=O)(=O)N(C)CC1 [Example 214, (7R)-14-cyclohexyl-21-ethyl-24-(2-hydroxyethyl)-3,18-dimethyl-7,8-dihydro-6H-7,11-(epiminoethanoiminoethanoiminothioiminomethano)-indolo[1,2-e][1,5]benzoxazocin-15-one 17,17-dioxide] | < 25 nM | – |
| CCN1CCN(C)[C@H]2COc3cc(C)ccc3-c3c(C4CCCCC4)c4ccc(cc4n3C2)C(=O)NS(=O)(=O)N(C)CC1 [Example 215, (7R)-14-cyclohexyl-21-ethyl-3,18,24-trimethyl-7,8-dihydro-6H-7,11-(epiminoethanoiminoethanoiminothioiminomethano)-indolo[1,2-e][1,5]benzoxazocin-15-one 17,17-dioxide] | < 25 nM | – |
| Cc1ccc2c(c1)OCC1Cn3c-2c(C2CCCCC2)c2ccc(cc23)C(=O)NS(=O)(=O)N(C)CCN(C)CCN1C [Example 216, (7R)-14-cyclohexyl-3,18,21,24-tetramethyl-7,8-dihydro-6H-7,11-(epiminoethanoiminoethanoiminothioiminomethano)-indolo[1,2-e][1,5]benzoxazocin-15-one 17,17-dioxide] | < 25 nM | – |
| CCN1CCN(CCN(C)C)C2COc3ccccc3-c3c(C4CCCCC4)c4ccc(cc4n3C2)C(=O)NS(=O)(=O)N(C)CC1 [Example 217, (7R)-14-cyclohexyl-24-[2-(dimethylamino)ethyl]-21-ethyl-18-methyl-7,8-dihydro-6H-7,11-(epiminoethanoiminoethanoiminothioiminomethano)-indolo[1,2-e][1,5]benzoxazocin-15-one 17,17-dioxide] | < 25 nM | – |
| Cc1ccc2c(c1)OCC1Cn3c-2c(C2CCCCC2)c2ccc(cc23)C(=O)NS(=O)(=O)N(C)CCN(C(C)C)CCN1C [Example 218, (7R)-14-cyclohexyl-21-isopropyl-3,18,24-trimethyl-7,8-dihydro-6H-7,11-(epiminoethanoiminoethanoiminothioiminomethano)-indolo[1,2-e][1,5]benzoxazocin-15-one 17,17-dioxide] | < 25 nM | – |
| CCN1CCN(CCN(C)C)C2COc3c(C)cccc3-c3c(C4CCCCC4)c4ccc(cc4n3C2)C(=O)NS(=O)(=O)N(C)CC1 [Example 219, (7R)-14-cyclohexyl-24-[2-(dimethylamino)ethyl]-21-ethyl-4,18-dimethyl-7,8-dihydro-6H-7,11-(epiminoethanoiminoethanoiminothioiminomethano)-indolo[1,2-e][1,5]benzoxazocin-15-one 17,17-dioxide] | < 25 nM | – |
| CN(C)CCN1CCN(C)C2COc3ccccc3-c3c(C4CCCCC4)c4ccc(cc4n3C2)C(=O)NS(=O)(=O)N(C)CC1 [Example 220, (7R)-14-cyclohexyl-21-[2-(dimethylamino)ethyl]-18,24-dimethyl-7,8-dihydro-6H-7,11-(epiminoethanoiminoethanoiminothioiminomethano)-indolo[1,2-e][1,5]benzoxazocin-15-one 17,17-dioxide] | < 25 nM | – |
| CN1C2CCN(CCN(C)S(=O)(=O)NC(=O)c3ccc4c(C5CCCCC5)c5n(c4c3)C[C@@H]1COc1ccccc1-5)C2 [Example 301, (18R)-29-cyclohexyl-10,17-dimethyl-20-oxa-9-thia-1,8,10,13,17-pentaazahexacyclo[16.9.1.1^2,6.1^3,27.1^13,16.0^21,26]hentriaconta-2(31),3,5,21,23,25,27(29)-heptaen-7-one 9,9-dioxide] | – | < 25 nM |
| CN1C2CCN(CC2)CCN(C)S(=O)(=O)NC(=O)c2ccc3c(C4CCCCC4)c4n(c3c2)C[C@@H]1COc1ccccc1-4 [Example 302, (3R)-31-cyclohexyl-2,22-dimethyl-5-oxa-21-thia-2,13,20,22,25-pentaazahexacyclo[23.2.2.1^3,13.1^12,15.1^14,18.0^6,11]dotriaconta-6,8,10,12(31),14(30),15,17-heptaen-19-one 21,21-dioxide] | – | < 25 nM |
| CN1CCN2CCC(CC2)N(C)S(=O)(=O)NC(=O)c2ccc3c(C4CCCCC4)c4n(c3c2)C[C@@H]1COc1ccccc1-4 [Example 303, (5R)-31-cyclohexyl-4,24-dimethyl-7-oxa-23-thia-1,4,15,22,24-pentaazahexacyclo[23.2.2.1^5,15.1^14,17.1^16,20.0^8,13]dotriaconta-8,10,12,14(31),16(30),17,19-heptaen-21-one 23,23-dioxide] | – | < 25 nM |
| CN1CCN2CCCN(CC2)S(=O)(=O)NC(=O)c2ccc3c(C4CCCCC4)c4n(c3c2)C[C@@H]1COc1ccccc1-4 [Example 304, (20R)-31-cyclohexyl-21-methyl-18-oxa-2-thia-1,3,10,21,24-pentaazahexacyclo[22.3.2.1^5,9.1^8,11.1^10,20.0^12,17]dotriaconta-5(32),6,8,11(31),12,14,16-heptaen-4-one 2,2-dioxide] | – | < 25 nM |
| CN1CCOC2CCN(CC2)S(=O)(=O)NC(=O)c2ccc3c(C4CCCCC4)c4n(c3c2)C[C@@H]1COc1ccccc1-4 [Example 306, (20R)-31-cyclohexyl-21-methyl-18,24-dioxa-2-thia-1,3,10,21-tetraazahexacyclo[23.2.2.1^5,9.1^8,11.1^10,20.0^12,17]dotriaconta-5(32),6,8,11(31),12,14,16-heptaen-4-one 2,2-dioxide] | – | 150 to 500 nM |
